{"source": "patent US20220008537A1", "about": "“COMPOUNDS FOR PHOTODYNAMIC THERAPY AND RELATED USES” (GEORGIA STATE UNIVERSITY RESEARCH FOUNDATION, INC., priority 2018, published 2022)", "key": {"pUC19 plasmid DNA": {"test_system": "pUC19 plasmid DNA", "experiment": "DNA photocleavage inhibition induced by chemical additives", "assay_type": "biochemical", "details": "20 μM dye, 38 μM bp pUC19, 830 nm 300 mW LED laser, pH 7.0", "procedure": "Individual DNA cleavage reactions containing 5 μM to 50 μM concentrations of cyanine dye, 38 μM bp of pUC19 plasmid, and 10 mM of sodium phosphate pH 7.0 were prepared in a total volume of 40 μL. In order maintain reaction temperature at 10° C., 22° C., or 37° C., the samples were placed in a thermometer-fitted metal block that was either heated, kept at room temperature, or immersed in an ice bath. While monitoring temperature with the thermometer, the samples were either kept in the dark or were irradiated at time interval ranging from 5 min to 120 min using a light emitting diode (LED) laser (LaserLands) with a peak emission wavelength of either 532 nm (100 mW), 808 nm (300 mW), or 830 nm (300 mW). At the end of the irradiation time interval, a total of 3 μL of electrophoresis loading buffer containing 15.0% (w/v) ficoll and 0.025% (w/v) bromophenol blue) was added to each reaction and 20 μL of the resulting solution was added to one of the wells of 1.5% agarose gel stained with ethidium bromide (0.5 μg/mL, final concentration). Completely loaded gels were then electrophoresed for 60 min at 105 V in a Bio-Rad Laboratories gel box using 1×tris-acetate-EDTA (TAE) containing 0.5 μg/mL ethidium bromide as the running buffer. Electrophoresed gels were visualized at 302 nm with a VWR Scientific LM-20E transilluminator and then photographed with a UVP PhotoDoc-ItTM Imaging System. For quantitating the gels, ImageQuant version 5.2 software was employed. The DNA photocleavage yields were then calculated using the formula: Percent Photocleavage=[(Linear+Nicked DNA)/(Linear+Nicked+Supercoiled DNA)]×100. In an argon-purged glove box, 40 μL photocleavage reactions containing 10 mM sodium phosphate buffer pH 7.0, 20 μM of cyanine dye, and 38 μM bp of pUC19 plasmid were prepared from solutions bubbled with argon and then irradiated at 830 nm for 30 min The procedure was repeated using aerated solutions in a glove box purged with air. A second set of reactions containing 10 mM of sodium phosphate buffer pH 7.0, 38 μM bp pUC19 plasmid DNA and 20 μM of dye were prepared in the presence and absence of either 100 mM of the singlet oxygen scavenger sodium azide, 100 mM of the hydroxyl radical scavenger sodium benzoate, or 84% D2O (v/v). […] After the irradiation, the above DNA reactions were electrophoresed on 1.5% non-denaturing agarose gels, visualized, and quantitated as just described. The percent change in DNA photocleavage was then calculated using the formula, where additive stands for either argon, sodium azide, sodium benzoate, or D2O: Percent Change in Cleavage=[(% Total of Linear and Nicked […] additive-% Total of Linear and Nicked DNAwithout additive)/(% Total of Linear and Nicked DNAwithout additive)]×100. […]"}}}
{"smiles": "CN1C=C/C(=C/C=C/C=C/c2cc[n+](C)c3ccccc23)c2ccccc21.[I-]", "note": "[Dye 4, 1-methyl-4-((1E,3E)-5-((Z)-1-methylquinolin-4(1H)-ylidene)penta-1,3-dien-1-yl)quinolin-1-ium iodide]", "values": [{"measurement": "melting point", "result": "239 °C (dec.)"}]}
{"smiles": "CN1C=C/C(=C/C=C(Cl)/C=C/c2cc[n+](C)c3ccccc23)c2ccccc21.[I-]", "note": "[Dye 5, 4-((1E,3Z)-3-chloro-5-((Z)-1-methylquinolin-4(1H)-ylidene)penta-1,3-dien-1-yl)-1-methylquinolin-1-ium iodide]", "values": [{"measurement": "Photocleavage inhibition (%)", "setting": "pUC19 plasmid DNA; Reagent Argon (targets 1O2 & •OH)", "result": "67 ± 3", "unit": "%"}, {"measurement": "Photocleavage inhibition (%)", "setting": "pUC19 plasmid DNA; Reagent D2O 84% (v/v) (target 1O2)", "result": "6 ± 1", "unit": "%"}, {"measurement": "Photocleavage inhibition (%)", "setting": "pUC19 plasmid DNA; Reagent Sodium azide 100 mM (targets 1O2 > •OH)", "result": "26 ± 3", "unit": "%"}, {"measurement": "Photocleavage inhibition (%)", "setting": "pUC19 plasmid DNA; Reagent Sodium benzoate 100 mM (target •OH)", "result": "31 ± 2", "unit": "%"}, {"measurement": "melting point", "result": "> 260", "unit": "°C"}]}
